PMC10706121, “Bioactive Polyketides from the Natural Complex of the Sea Urchin-Associated Fungi Penicillium sajarovii KMM 4718 and Aspergillus protuberus KMM 4747” (International Journal of Molecular Sciences, 2023)
In brackets after ≈: the same amount, converted by molar mass. Entries after “also recorded” stand apart in the source; their conditions may differ. Like-named read-outs stand apart in the source and are kept apart here.

Assays:
[1] = target: T1, urease from Canavalia ensiformis (Canavalia ensiformis, UniProt P07374); test: Urease inhibition assay (indophenol method, cell-free); assay type: biochemical
T1 construct: purchased Sigma
T1 sequence (P07374 whole entry, looked up): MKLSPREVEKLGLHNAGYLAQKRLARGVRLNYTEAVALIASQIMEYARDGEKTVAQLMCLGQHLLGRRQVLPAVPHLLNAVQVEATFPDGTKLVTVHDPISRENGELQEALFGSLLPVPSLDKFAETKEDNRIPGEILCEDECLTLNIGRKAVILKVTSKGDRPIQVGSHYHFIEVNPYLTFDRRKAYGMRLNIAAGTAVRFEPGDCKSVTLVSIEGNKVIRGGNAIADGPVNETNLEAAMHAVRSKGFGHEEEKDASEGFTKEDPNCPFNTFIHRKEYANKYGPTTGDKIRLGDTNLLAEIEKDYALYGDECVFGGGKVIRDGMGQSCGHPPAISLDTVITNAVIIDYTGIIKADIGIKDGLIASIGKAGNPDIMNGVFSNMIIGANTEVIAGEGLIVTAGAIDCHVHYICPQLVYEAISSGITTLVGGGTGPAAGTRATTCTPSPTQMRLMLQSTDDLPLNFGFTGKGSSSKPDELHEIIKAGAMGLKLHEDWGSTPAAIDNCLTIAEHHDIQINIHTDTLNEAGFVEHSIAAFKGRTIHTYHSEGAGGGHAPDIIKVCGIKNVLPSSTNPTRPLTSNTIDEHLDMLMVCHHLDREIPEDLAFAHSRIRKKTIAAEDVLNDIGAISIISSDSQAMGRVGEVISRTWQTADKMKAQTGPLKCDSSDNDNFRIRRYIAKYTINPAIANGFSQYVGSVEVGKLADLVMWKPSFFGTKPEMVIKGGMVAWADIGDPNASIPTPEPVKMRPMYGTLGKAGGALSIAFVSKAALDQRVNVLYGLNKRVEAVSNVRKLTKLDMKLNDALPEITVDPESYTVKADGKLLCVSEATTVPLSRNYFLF
Description: A reaction mixture consisting of 25 µL of enzyme solution (urease from Canavalia ensiformis, Sigma, 1U final concentration) and 5 µL of test compounds dissolved in water (10–300.0 µM final concentration) was preincubated at 37 °C for 60 min in 96-well plates. Then, 55 µL of phosphate-buffered solution with […] of urea was added to each well and incubated at 37 °C for 10 min. The urease inhibitory activity was estimated by determining ammonia production using the indophenol method. Briefly, 45 µL of phenol reagent (1% w/v phenol and 0.005% w/v sodium nitroprusside) and 70 µL of alkali reagent (0.5% w/v NaOH and 0.1% active chloride NaClO) were added to each well. The absorbance was measured after 50 min at 630 nm using a MultiskanFS microplate reader (Thermo Scientific Inc., Beverly, MA, USA). All reactions were performed in triplicate in a final volume of 200 µL. The pH was maintained at 7.3–7.5 in all assays. DMSO 5% was used as a positive control.

[2] = system: Candida albicans KMM 455; test: Antimicrobial activity, inhibition of microbial growth (OD620); assay type: cell-based; details: Candida albicans, KMM455; compounds tested at 100 µM; read-out: Inhibition of Microbial Growth, C. albicans
Description: (§1) The yeast-like fungi of Candida albicans KMM 455 and bacterial strains Staphylococcus aureus ATCC 21027 and Escherichia coli VKPM (B-7935) (Collection of Marine Microorganisms PIBOC FEB RAS) were cultured on solid-medium Mueller Hinton broth with agar (16.0 g/L) in a Petri dish at 37 °C for 24 h.
(§2) The assays were performed in 96-well microplates in appropriate Mueller Hinton broth. Each well contained 90 µL of bacterial or of a yeast-like fungi suspension (10^9 CFU/mL). Then, 10 µL of a compound diluted at concentrations ranging from 1.5 to 100.0 µM using a 2-fold dilution was added (DMSO concentration < 1%). Culture plates were incubated overnight at 37 °C, and the OD620 was measured using a Multiskan FS spectrophotometer (Thermo Scientific Inc., Beverly, MA, USA). The antibiotic gentamicin and antifungal agent nitrofungin were used as positive controls at 1 mg/mL; 1% DMSO in PBS served as a negative control.

[3] = system: Escherichia coli VKPM (B-7935); test: as above; assay type: cell-based; details: Escherichia coli, compounds tested at 100 µM; read-out: Inhibition of Microbial Growth, E. coli
Description: as §1, §2

[4] = system: Staphylococcus aureus ATCC 21027; test: as above; assay type: cell-based; details: Staphylococcus aureus, ATCC21027, compounds tested at 100 µM; read-out: Inhibition of Microbial Growth, S. aureus
Description: as §1, §2

[5] = Cell viability assay (MTT), cytotoxic activity; assay type: cell-based, human; details: 24 h, MTT; for viability at 24 h, 10 µM / viability at 24 h, 100 µM: percent of control
Description: The HepG2 and H9c2 cells were cultured in DMEM medium (Biolot, St. Petersburg, Russia) containing 10% fetal bovine serum (Biolot, St. Petersburg, Russia) and 1% penicillin/streptomycin (Biolot, St. Petersburg, Russia) at 37 °C in a humidified atmosphere with 5% (v/v) CO2.
The HepG2 and H9c2 cells were seeded at concentrations of 5× 10^3 and 3×10^3 cell/well, respectively, and the experiments were started after 24 h. The compounds at concentrations up to 100 µM were added into the wells for 24 h, and the viability of the cells was measured by an MTT (3-(4,5-dimethylthiazol-2-yl)-2,5-diphenyltetrazolium bromide) assay, which was performed according to the manufacturer’s instructions (Sigma-Aldrich, Munich, Germany). All compounds were dissolved with DMSO so that the final concentration of DMSO in the cell culture was not more than 1%. Moreover, DMSO was used as a control. The absorbance of the resulting solution was measured at 570 nm with a microplate reader MultiscanFC (ThermoLabsystems Inc., Beverly, MA, USA). The results are presented as a percent of the control data and calculated IC50.

[6] = system: Bacillus subtilis; design: method as in doi:10.1007/s11274-009-0062-y; details: cited from earlier work
[7] = system: Escherichia coli; design: method as in doi:10.1007/s11274-009-0062-y; details: cited from earlier work
[8] = system: Pseudomonas fluorescens; design: method as in doi:10.1007/s11274-009-0062-y; details: cited from earlier work
[9] = system: Candida albicans; design: method as in doi:10.1007/s11274-009-0062-y; details: cited from earlier work
[10] = human, HepG2 hepatocarcinoma cells

Cc1cc(=O)c2c(C)cc(O)cc2o1 [Compound 4, altechromone A]
IC50 [1]: > 100 µM
effect on urease activity ([1]; at concentrations of up to 100 µM): no effect; also recorded: very poor
inhibition at 100 µM [2]: 11.1 ± 1.3%
inhibition at 100 µM [3]: 13.6 ± 0.3%
inhibition at 100 µM [4]: 30.1 ± 1.2%
IC50 at 24 h ([5]; human, HepG2 cells (human hepatocarcinoma), read-out: HepG2 IC50 (cytotoxic effect)): > 100 µM
viability at 24 h, 10 µM [5, 10]: 99.2 ± 6.5%
viability at 24 h, 100 µM [5, 10]: 92.6 ± 4.1%
viability at 24 h, 10 µM ([5]; rat, H9c2 cardiomyocyte cells): 110 ± 2.9%
viability at 24 h, 100 µM ([5]; rat, H9c2 cardiomyocyte cells): 96.5 ± 3.6%
IC50 at 24 h ([5]; rat, H9c2 cells (normal rat cardiomyocytes), read-out: H9c2 IC50 (cytotoxic effect)): > 100 µM
MIC against Bacillus subtilis [6]: 3.9 µg/mL (≈ 20.5 µM)
MIC against Escherichia coli [7]: 3.9 µg/mL (≈ 20.5 µM)
MIC against Pseudomonas fluorescens [8]: 1.8 µg/mL (≈ 9.46 µM)
MIC against Candida albicans [9]: 3.9 µg/mL (≈ 20.5 µM)
